Laboratory results published in US12152035B2, “Androgen receptor binding molecule and use thereof” (Industrial Technology Research Institute, priority 2020, dated 2024).

Experiments:
Format in all cases: cell-based
[1] = test system: full-length androgen receptor; test: Western blot: degradation of full-length androgen receptor in CWR22RV1 cells; details: overnight
Protocol: CWR22Rv1 cells were maintained in RPMI medium supplemented with 10% fetal bovine serum and 1% penicillin-streptomycin at 37° C. in a humidified environment with 5% CO2.
CWR22Rv1 (5×10^5 cells) were seeded in each well of a 6-well plate and incubated overnight. Before compound treatment, the medium in the wells was replaced with a new medium. Cells were treated with different concentrations of compound overnight. Subsequently, cells were harvested by adding cold PBS and scraping cells. Cells were lysed according to general procedures and Western blot assays were performed to assess the ability of compounds to degrade full-length androgen receptor or androgen receptor splice variant 7. The cells or cell lysates were kept on ice at all times.
The following reagents were used in this experiment. Phosphate buffered saline (PBS) (Hyclone, SH30028.02), fetal bovine serum (Hyclone, SH30084.23, Lot AC14563276), penicillin-streptomycin solution (Hyclone, SV30010), 0.5% Trypsin-EDTA (Gibco, 15400-054), CST Lysis Buffer (CST-9803), Halt™ Protease and Phosphatase Inhibitor (ThermoFisher, 78442), Coomassie (Bradford) Protein Assay (Coomassie (Bradford) protein assay) (ThermoFisher, 23200), androgen receptor antibody (Cell Siginaling, CST-5153S), GAPDH antibody (Cell Siginaling, CST-5174S), HRP-goat-anti-rabbit (Jackson Immuno Research, 111-035-003), skim milk, SuperSignal West Pico Maximum Sensitivity substrate (ThermoFisher, 34080).
The compound prepared above was analyzed for its ability to degrade full-length androgen receptor and androgen receptor splice variant 7 in CWR22RV1 cells by Western blotting according to the method shown in item B.3-2 above.

[2] = test system: VCaP cells; test: Cytotoxicity assay (AlamarBlue, 72 hours); details: 72 hours treatment, concentration not given
Protocol: (§1) Compound stock solutions of 10 mM were prepared with 100% DMSO and shaken for 10-15 seconds. The compound stock solutions were centrifuged at 12000 rpm (13523 rcf.) for 5 minutes and record the turbidity or precipitation state with a photo snapshot. The compound stock solutions were resuspended by shaking for 10-15 seconds, and serially diluted with 100% DMSO solution to make the compound concentration to 1000 μM, then to 100, 10, and 1 μM, and then 10-fold diluted with medium to 100, 10, 1, 0.1 μM (final 10% DMSO/medium) to complete compound test sample preparation. Compound treatment was performed by adding 10 μL of compound test sample to cells in each well of a 96-well plate (final 1% DMSO/medium).
(§2) Cells (CWR22Rv1 cells or VCaP cells) were cultured in RPMI-1640 medium supplemented with 10% fetal bovine serum, 10,000 U/mL penicillin and 10,000 μg/mL streptomycin. Cells were cultured at 37° C. in a humidified 5% CO2 incubator.
(§3) Cells were seeded in a 96-well plate (1×10^4 cells/well). 10 μL of the above compound test sample was added to each well of the 96-well plate on next day. After 72 hours of compound treatment, 10 μL of AlamaBlue reagent was added to each of 96 wells and incubated for 4 hours. The fluorescence value at Ex/Em=560/590 nm was read with a microplate reader, and the cytotoxicity (%) was calculated.
(§4) According to the above method, the compounds prepared above were subjected to cytotoxicity test with CWR22RV1 cells and VCaP cells.

[3] = test system: CWR22RV1 cells; test: Cytotoxicity assay (AlamarBlue, 72 hours); details: 72 hours treatment, concentration not given
Protocol: as §1, §2, §3, §4

[4] = compound concentration 0.1 (unit not given)
[5] = compound concentration 1 (unit not given)
[6] = compound concentration 10 (unit not given)

| Compound | Degradation ability for full-length androgen receptor (residual rate %) [1, 4] | Degradation ability for full-length androgen receptor (residual rate %) [1, 5] | Degradation ability for full-length androgen receptor (residual rate %) [1, 6] | Cytotoxicity, VCaP cells (cell viability %) [2] | Cytotoxicity, CWR22RV1 cells (cell viability %) [3] |
| --- | --- | --- | --- | --- | --- |
| Cc1ncsc1-c1ccc(CNC(=O)[C@H]2C[C@@H](O)CN2C(=O)[C@@H](NC(=O)C2(F)CC2)C(C)(C)C)c(OCCCCCCCOc2ccc(C3CCN(C4=Nn5c(nnc5C(F)(F)F)CC4)CC3)cc2)c1 [Compound 36, (2R,4R)-1-((S)-2-(1-fluorocyclopropane-1-carboxamido)-3,3-dimethylbutanoyl)-4-hydroxy-N-(4-(4-methylthiazol-5-yl)-2-((7-(4-(1-(3-(trifluoromethyl)-7,8-dihydro-[1,2,4]triazolo[4,3-b]pyridazin-6-yl)piperidin-4-yl)phenoxy)heptyl)oxy)benzyl)pyrrolidine-2-carboxamide] | − (>80%; −) | + (60-80%: +) | + (60-80%: +) | +++ (<40% : +++) | +++ (<40% : +++) |
| O=C1CCC(N2Cc3cc(C4=CCN(C(=O)COCCCCOc5ccc(C6CCN(C7=Nn8c(nnc8C(F)(F)F)CC7)CC6)cc5)CC4)ccc3C2=O)C(=O)N1 (stereo not shown) [Compound 40, 3-(1-oxo-5-(1-(2-(4-(4-(1-(3-(trifluoromethyl)-7,8-dihydro-[1,2,4]triazolo[4,3-b]pyridazin-6-yl)piperidin-4-yl)phenoxy)butoxy)acetyl)-1,2,3,6-tetrahydropyridin-4-yl)isoindolin-2-yl)piperidine-2,6-dione] | + (60-80%: +) | + (60-80%: +) | +++ (<40%: +++) | ++ (40-60% : ++) | ++ (40-60% : ++) |
| O=C1CCC(N2C(=O)c3cccc(N4CCN(C(=O)COCCCCOc5ccc(C6CCN(C7=Nn8c(nnc8C(F)(F)F)CC7)CC6)cc5)CC4)c3C2=O)C(=O)N1 (stereo not shown) [Compound 45, 2-(2,6-dioxopiperidin-3-yl)-4-(4-(2-(4-(4-(1-(3-(trifluoromethyl)-7,8-dihydro-[1,2,4]triazolo[4,3-b]pyridazin-6-yl)piperidin-4-yl)phenoxy)butoxy)acetyl)piperazin-1-yl)isoindoline-1,3-dione] | − (>80%; −) | ++ (40-60%: ++) | ++ (40-60%: ++) | +++ (<40% : +++) | + (60-80% : +) |
| Cc1ncsc1-c1ccc(CNC(=O)[C@@H]2C[C@H](O)CN2C(=O)[C@@H](NC(=O)COCCCCOc2ccc(C3CCN(c4ccc5nnc(C(F)(F)F)n5n4)CC3)cc2)C(C)(C)C)cc1 [Compound 37, (2S,4S)-1-((S)-3,3-dimethyl-2-(2-(4-(4-(1-(3-(trifluoromethyl)-[1,2,4]triazolo[4,3-b]pyridazin-6-yl)piperidin-4-yl)phenoxy)butoxy)acetamido)butanoyl)-4-hydroxy-N-(4-(4-methylthiazol-5-yl)benzyl)pyrrolidine-2-carboxamide] | − (>80%; −) | + (60-80%: +) | +++ (<40%: +++) | +++ (<40% : +++) | +++ (<40% : +++) |
| Cc1ncsc1-c1ccc(CNC(=O)[C@@H]2C[C@H](O)CN2C(=O)[C@@H](NC(=O)COCCCCCCOc2ccc(C3CCN(C4=Nn5c(nnc5C(F)(F)F)CC4)CC3)cc2)C(C)(C)C)cc1 [Compound 22] | ++ (40-60%: ++) | +++ (<40%: +++) | +++ (<40%: +++) | +++ (<40% : +++) | +++ (<40% : +++) |
| O=C1CCC(N2C(=O)c3cccc(N4CCC(N5CCC(C#Cc6ccc(C7CCN(C8=Nn9c(nnc9C(F)(F)F)CC8)CC7)cc6)CC5)CC4)c3C2=O)C(=O)N1 (stereo not shown) [Compound 44, 2-(2,6-dioxopiperidin-3-yl)-4-(4-((4-(1-(3-(trifluoromethyl)-7,8-dihydro-[1,2,4]triazolo[4,3-b]pyridazin-6-yl)piperidin-4-yl)phenyl)ethynyl)-[1,4′-bipiperidin]-1′-yl)isoindoline-1,3-dione] | − (>80%; −) | − (>80%; −) | ++ (40-60%: ++) | +++ (<40% : +++) | +++ (<40% : +++) |
| O=C1CCC(N2Cc3c(NC(=O)COCCCCOc4ccc(C5CCN(C6=Nn7c(nnc7C(F)(F)F)CC6)CC5)cc4)cccc3C2=O)C(=O)N1 (stereo not shown) [Compound 30, N-(2-(2,6-dioxopiperidin-3-yl)-1-oxoisoindolin-4-yl)-2-(4-(4-(1-(3-(trifluoromethyl)-7,8-dihydro-[1,2,4]triazolo[4,3-b]pyridazin-6-yl)piperidin-4-yl)phenoxy)butoxy)acetamide] | ++ (40-60%: ++) | +++ (<40%: +++) | +++ (<40%: +++) | +++ (<40% : +++) | +++ (<40% : +++) |
| Cc1cc([C@H](C(=O)N2C[C@H](O)C[C@H]2C(=O)N[C@@H](CC(=O)N2CCC(N3CCC(C#Cc4ccc(C5CCN(C6=Nn7c(nnc7C(F)(F)F)CC6)CC5)cc4)CC3)CC2)c2ccc(-c3scnc3C)cc2)C(C)C)on1 [Compound 9, (2S,4R)-4-hydroxy-1-((R)-3-methyl-2-(3-methylisoxazol-5-yl)butanoyl)-N—((S)-1-(4-(4-methylthiazol-5-yl)phenyl)-3-oxo-3-(4-((4-(1-(3-(trifluoromethyl)-7,8-dihydro-[1,2,4]triazolo[4,3-b]pyridazin-6-yl)piperidin-4-yl)phenyl)ethynyl)-[1,4′-bipiperidin]-1′-yl)propyl)pyrrolidine-2-carboxamide] | + (60-80%: +) | +++ (<40%: +++) | + (60-80%: +) | +++ (<40% : +++) | ++ (40-60% : ++) |
